pKd: −log10 of the molar value. Peptide text beside a SMILES is read from it.

The subject of one assay is BMP4 binding to ALK3-Fc. As to the kind of experiment: SPR, BMP4 binding to ALK3-Fc in the presence of peptide. The note with it: BMP4 50 nM, peptide 0.25-1 mM, compared with P3. On the procedure:
Peptide-receptor binding assays were performed using Biacore T200 biosensor (Biacore/GE Healthcare). ALK1-Fc, ALK2-Fc or ALK3-Fc was covalently linked onto individual flow cells of a research grade CM5 chip (GE Healthcare) via amine-coupling using standard manufacturer’s protocol. One flow cell was used as a control for subtracting non-specific binding. Peptides were injected over the immobilised chip at various concentrations up to 1 mM at a flow rate of 30 μl/min for 3 min at 37 °C in running buffer containing 0.01 M HEPES, 0.5 M NaCl, 3 mM EDTA and 0.005% v/v Surfactant P20 (pH 7.4). At the end of each peptide injection, the chip surface was regenerated with 4 M Guanidine hydrochloride (GnHCl). The biotinylated peptide P3* was immobilised onto a streptavidin (SA) chip (GE Healthcare) following the manufacturer’s protocol. Binding assays were carried out using a similar protocol as described above, only with a different injection time of 4 min. For BMP9-ALK1 and BMP4-ALK3 binding assays, BMP9 and BMP4 were added at 50 nM alone or in the presence of peptide P3 or P3r at 0.25 mM, 0.5 mM or 1 mM. Each cycle was set with a dissociation time of 12 min. Duplicated injections were performed for each ligand along with buffer blanks. The equilibrium dissociation constant KD was determined by fitting the data to a steady-state model using BIAevaluation software (GE Healthcare). […]

Assay [1] has as its system Smad1/5 phosphorylation in hPAECs. Nature of the assay: BMP9-induced Smad1/5 phosphorylation assay in hPAECs (immunoblot). The assay is classed as cell-based, human. The note with it: BMP9 0.03 ng/ml (1.24 pM GFD dimer), peptide 250 μM (P3 also dose-dependent), 40 min, serum-starved, immunoblot densitometry. On the procedure: Endothelial cells were seeded in 6-cm dishes at 9 × 10^5 cells/dish and cultured for 24 hours (h) to full confluence, and then serum-starved for 16 h before treatments with control buffer, BMP9 alone, BMP9 with peptides, or peptides alone. After 40 min, cells were washed once with PBS and snap-frozen on dry ice to harvest. Cells were then lysed with buffer containing 125 mM Tris-HCl (pH 6.8), 2% SDS and 10% glycerol. The total protein concentration was determined using the DC^TM protein assay (Bio-Rad), of which 30 μg of total cell proteins was fractionated on 12% SDS-PAGE under non-reducing condition. The phosphorylation of Smad1/5 and total Smad1 were detected by anti-phospho-Smad1/5 antibody (9516 S) and anti-Smad 1 antibody (9743 S). The intensity of pSmad1/5 bands were quantified using ImageJ software, using β-actin or α-tubulin as the loading control.

Assay [2] deals with Smad1/5 phosphorylation in HMEC-1. Nature of the assay: BMP4-induced Smad1/5 phosphorylation in HMEC-1. In kind it is cell-based, human. Particulars: peptide 250 μM, BMP4 0.3 ng/ml (11.54 pM GFD dimer), N = 3.
Assay [3] deals with ALP activity in C2C12 cells. Nature of the assay: BMP9-induced ALP activity in C2C12 cells. In kind it is cell-based, mouse. Particulars: peptide 160 μM with BMP9, 65 h, DMEM 0.25% FBS, three independent experiments in duplicate. On the procedure:
C2C12 mouse myoblasts were seeded in 24-well plates at 25,000 cells/well with antibiotics for 48 h. Treatments were performed in DMEM, 0.25% FBS with antibiotics in a final volume of 1.1 ml for 65 h. Cells were harvested and lysed in 1% Triton-X100 in PBS and the extracted total protein was quantified by Bio-Rad DC^TM protein assay (Bio-Rad). ALP activity was determined by incubating 15 μg of the total protein with ALP substrate p-nitrophenyl phosphate (PNPP, Sigma-Aldrich) and absorbance of the product p-nitrophenol (PNP) was recorded at 405 nm in 5 min intervals for 1 h. The relative ALP activity was expressed as fold change to the BMP9-treated control with data presented as means ± S.E.

The target in another assay is ALK3. The note with it: ALK3 expressed from different host cells; read-out: KD values of BMP4 for ALK3; cited from earlier work. As to the method:
(§1) It is intriguing why the same peptide could promote BMP9 signalling in PAECs while inhibit BMP4 signalling in HMECs, an effect which is also recapitulated in the SPR binding studies (Fig. 4A–D, Supplemental Fig. 4). Whilst it is difficult to provide a direct structural explanation, this may relate to the difference in affinities and concentrations of the receptors for the ligands. ALK1 binds BMP9 with affinity of around 0.03 nM[8]. The reported KD values of BMP4 for ALK3 (with ALK3 expressed from different host cells) are 1–10 nM[30],[31]. It is plausible that the inhibitory effect of P3 on BM ...

The next assay deals with ALK1. Particulars: read-out: affinity of ALK1 for BMP9; cited from earlier work. On the procedure: as §1

On to `CC[C@H](C)[C@H](NC(=O)[C@H](CC(=O)O)NC(=O)[C@@H](NC(=O)[C@@H](NC(=O)[C@H](CCCCN)NC(=O)[C@H](Cc1ccccc1)NC(=O)[C@@H](NC(=O)[C@H](CCCCN)NC(=O)[C@H](CC(=O)O)NC(=O)[C@H](CC(C)C)NC(=O)[C@H](CCC(N)=O)NC(=O)[C@H](C)NC(=O)[C@@H]1CCCN1C(=O)[C@@H](NC(=O)[C@@H](NC(=O)[C@H](CS)NC(=O)[C@@H](NC(=O)[C@@H]1CCCN1)[C@@H](C)O)[C@@H](C)O)[C@@H](C)O)C(C)C)[C@@H](C)O)[C@@H](C)O)C(=O)N[C@@H](Cc1c[nH]cn1)C(=O)N[C@@H](Cc1ccccc1)C(=O)N[C@@H](CS)C(=O)N[C@@H](Cc1c[nH]cn1)C(=O)N[C@@H](CC(C)C)C(=O)O` [Peptide P3r] (H-PTCTTPAQLDKVFKTTDIHFCHL-OH; N-terminus and C-terminus assumed), for which, in the assay with BMP4 binding to ALK3-Fc, the “competing BMP4 binding to ALK3 (in words)” value is “much less effective”. For the same compound, the “effect on BMP9-induced Smad1/5 phosphorylation in hPAECs” value in assay [1] is reported as “significantly enhanced”. The “effect on BMP4-induced Smad1/5 phosphorylation in HMEC-1” value in assay [2] is “failed to inhibit”. The “effect on BMP9-induced ALP activity in C2C12 cells” value in assay [3] is recorded as “No difference”.

Regarding “BMP4: bone morphogenetic protein 4, growth factor”, the pKd on ALK3 is 8.00 to 9.00.

In the case of “BMP9: bone morphogenetic protein 9, growth factor”, the pKd at ALK1 was around 10.52.

(Values after article PMC6748948, “A Bone Morphogenetic Protein (BMP)-derived Peptide Based on the Type I Receptor-binding Site Modifies Cell-type Dependent BMP Signalling” (Scientific Reports, 2019).)
